The test in a line: Binding affinity at human histamine H3.

For orientation: Ki means the dissociation constant of the complex between target and ligand, obtained from inhibition or displacement. A lower Ki goes with higher affinity.

Compound `CSc1ccc(C2CN(C)Cc3cccc(Oc4ccnc(CN5CCCCC5)c4)c32)cc1` (configuration not stated) [2-methyl-4-(4-(methylthio)phenyl)-5-(2-(piperidin-1-ylmethyl)pyridin-4-yloxy)-1,2,3,4-tetrahydroisoquinoline] yielded a Ki of 265 nM.
The same measure for `CSc1ccc(C2CN(C)Cc3cccc(Oc4cccc(CN5CCCCC5)c4)c32)cc1` (configuration not stated) [2-methyl-4-(4-(methylthio)phenyl)-5-(3-(piperidin-1-ylmethyl)phenoxy)-1,2,3,4-tetrahydroisoquinoline]: 253 nM; for `CSc1ccc(C2CN(C)Cc3cccc(Oc4cncc(CN5CCCCC5)c4)c32)cc1` (configuration not stated) [2-methyl-4-(4-(methylthio)phenyl)-5-(5-(piperidin-1-ylmethyl)pyridin-3-yloxy)-1,2,3,4-tetrahydroisoquinoline]: 511 nM.
Consider `CSc1ccc(C2CN(C)Cc3cc(Oc4ccnc(CN5CCCCC5)c4)ccc32)cc1` (configuration not stated) [2-methyl-4-(4-(methylthio)phenyl)-7-(2-(piperidin-1-ylmethyl)pyridin-4-yloxy)-1,2,3,4-tetrahydroisoquinoline], for which the inhibition constant (Ki) stood at 323 nM.
Next, `CSc1ccc(C2CN(C)Cc3cc(Oc4nc(CN5CCOCC5)cs4)ccc32)cc1` (configuration not stated) [2-methyl-4-(4-(methylthio)phenyl)-7-(4-(morpholinomethyl)thiazol-2-yloxy)-1,2,3,4-tetrahydroisoquinoline]: 201 nM; `CSc1ccc(C2CN(C)Cc3cc(Oc4ccc(CN5CCCCC5)cc4)ccc32)cc1` (configuration not stated) [2-methyl-4-(4-(methylthio)phenyl)-7-(4-(piperidin-1-ylmethyl)phenoxy)-1,2,3,4-tetrahydroisoquinoline]: 22.7 nM.
As to `CSc1ccc(C2CN(C)Cc3cc(Oc4cc(CN5CCCCC5)ccn4)ccc32)cc1` (configuration not stated) [2-methyl-4-(4-(methylthio)phenyl)-7-(4-(piperidin-1-ylmethyl)pyridin-2-yloxy)-1,2,3,4-tetrahydroisoquinoline], the affinity corresponds to a Ki of 34.3 nM.
The compound `CSc1ccc(C2CN(C)Cc3cc(Oc4nc(CN5CCCCC5)cs4)ccc32)cc1` (configuration not stated) [2-methyl-4-(4-(methylthio)phenyl)-7-(4-(piperidin-1-ylmethyl)thiazol-2-yloxy)-1,2,3,4-tetrahydroisoquinoline] had an inhibition constant (Ki) of 20.7 nM.
Turning to `CSc1ccc(C2CN(C)Cc3cc(Oc4ccc(CN5CCOCC5)cn4)ccc32)cc1` (configuration not stated) [2-methyl-4-(4-(methylthio)phenyl)-7-(5-(morpholinomethyl)pyridin-2-yloxy)-1,2,3,4-tetrahydroisoquinoline], the inhibition constant (Ki) was determined as 260 nM.
On to `CSc1ccc(C2CN(C)Cc3cc(Oc4ccc(CN5CCCCC5)cn4)ccc32)cc1` (configuration not stated) [2-methyl-4-(4-(methylthio)phenyl)-7-(5-(piperidin-1-ylmethyl)pyridin-2-yloxy)-1,2,3,4-tetrahydroisoquinoline], for which the Ki came to 8.2 nM.
In the case of `CSc1ccc(C2CN(C)Cc3cc(Oc4cncc(CN5CCCCC5)c4)ccc32)cc1` (configuration not stated) [2-methyl-4-(4-(methylthio)phenyl)-7-(5-(piperidin-1-ylmethyl)pyridin-3-yloxy)-1,2,3,4-tetrahydroisoquinoline], the inhibition constant (Ki) came out at 109 nM.
As to `CSc1ccc(C2CN(C)Cc3cc(Oc4ncc(CN5CCCCC5)s4)ccc32)cc1` (configuration not stated) [2-methyl-4-(4-(methylthio)phenyl)-7-(5-(piperidin-1-ylmethyl)thiazol-2-yloxy)-1,2,3,4-tetrahydroisoquinoline], the Ki was 20.7 nM.
The compound `CSc1ccc(C2CN(C)Cc3cc(Oc4cccc(CN5CCCCC5)n4)ccc32)cc1` (configuration not stated) [2-methyl-4-(4-(methylthio)phenyl)-7-(6-(piperidin-1-ylmethyl)pyridin-2-yloxy)-1,2,3,4-tetrahydroisoquinoline] showed an inhibition constant (Ki) of 51 nM.
Next, `CSc1ccc(C2CN(C)Cc3cc(Oc4ccc(CN5CCCCC5)nc4)ccc32)cc1` (configuration not stated) [2-methyl-4-(4-(methylthio)phenyl)-7-(6-(piperidin-1-ylmethyl)pyridin-3-yloxy)-1,2,3,4-tetrahydroisoquinoline]: 24.3 nM.
Consider `COc1ccc(C2CN(C)Cc3cc(OCCCN4CCCCC4)ncc32)cc1` (configuration not stated) [4-(4-methoxyphenyl)-2-methyl-7-(3-(piperidin-1-yl)propoxy)-1,2,3,4-tetrahydro-2,6-naphthyridine], for which the Ki was 12 nM.
In turn, `CSc1ccc(C2CN(C)Cc3cc(Oc4ccc(CN5CCC(F)CC5)cn4)ccc32)cc1` (configuration not stated) [7-(5-((4-fluoropiperidin-1-yl)methyl)pyridin-2-yloxy)-2-methyl-4-(4-(methylthio)phenyl)-1,2,3,4-tetrahydroisoquinoline] gave a Ki of 110 nM.
Turning to `CN(C)CCC(Oc1ccccc1)c1ccc(OCCCN2CCCCC2)cc1` (configuration not stated) [N,N-dimethyl-3-phenoxy-3-(4-(3-(piperidin-1-yl)propoxy)phenyl)propan-1-amine], the Ki came to 0.72 nM.

(Values after BindingDB's records for doi:10.1016/j.bmcl.2007.08.017 (Johnson & Johnson Pharmaceutical Research and Development, 2007).)
